In EP4729516A1, “S[…] DERIVATIVE, INTERMEDIATE, PREPARATION METHOD THEREFOR AND USE THEREOF” (Jiangsu NHWA Pharmaceutical Co., Ltd, priority 2023, dated 2024):

Key:
[1] = test system: Male SD rats; test: Hypnotic efficacy: loss of righting reflex (LORR) in rats; type: in vivo
Procedure: The sequential method was used to determine the ED50 (median effective dose) for the loss of righting reflex (LORR) by the compounds of the present disclosure in rats: Male SD rats, weighing 200-300 grams, were used. Each compound was dissolved in normal saline and administered via tail vein injection at an initial dose at a constant injection rate over 10 s (one rat per dose). […] This process was repeated, and the results were recorded in the AOT425 Statpm software until the software could calculate the ED50, at which point the experiment was terminated. The hypnotic efficacy of the compounds of the present disclosure was evaluated using ED50 with lower ED50 values indicating stronger efficacy.
Comparison of onset time and duration: Male SD rats, weighing 200-300 grams, were used. Each compound was dissolved in normal saline and administered via tail vein injection at a constant injection rate over 10 s, with 10 rats per group. […] The onset time and duration were recorded.
The onset time refers to the period from the completion of injection to when the rat is placed in a supine position, with the criterion for loss of righting reflex defined as the rat's inability to spontaneously revert to a prone position using its forelimbs and maintained for ≥10 s, which serves as an indicator of compound efficacy; the duration refers to the sustained period during which the rat remains in a state of losing righting reflex. The spontaneous recovery of the righting reflex in the rat is considered the cessation of the efficacy.

[2] = test system: Male SD rats; test: Fluctuations in blood pressure and heart rate after administration; type: in vivo
Procedure: Male SD rats, weighing 250-300 g, with 4 rats per group, were maintained under general anesthesia by isoflurane inhalation. Femoral artery cannulation was performed, and blood pressure and heart rate were monitored using a Powerlab data acquisition and analysis system. 30 min after the baseline values stabilized, the baseline mean arterial pressure (MAP0) and baseline heart rate (HR0) were measured. The rats were given a solution of each compound in normal saline via tail vein injection (the dose of each compound was the same as in Test Example 3, with rapid intravenous injection over 10 s). Blood pressure and heart rate were continuously recorded for 90 min. MAP^+ (the difference between the maximum mean arterial pressure (MAPmax) and MAP0), MAP^-(the difference between the minimum mean arterial pressure (MAPmin) and MAP0), and HR^- (the difference between the minimum heart rate (HRmin) and HR0) within 90 min were calculated. For calculation, the maximum increase rate of mean arterial pressure = MAP^+/MAP0 × 100%; the maximum decrease rate of mean arterial pressure = MAP^-/MAP0 × 100%; and the maximum decrease rate of heart rate = HR^-/HR0 × 100%.

[3] = in words, compared with dexmedetomidine hydrochloride, rats
[4] = loss of righting reflex, male SD rats, tail vein injection, dose twice the ED50, 10 rats per group
[5] = isoflurane-anesthetized male SD rats, tail vein injection, dose as in Test Example 3
[6] = isoflurane-anesthetized male SD rats, tail vein injection, dose as in Test Example 3, within 90 min

SMILES: CC(c1c[nH]cn1)c1cccc2c1COC2 (stereo not drawn) [Compound 5, 4-[1-(1,3-Dihydroisobenzofuran-4-yl)ethyl]-1H-imidazole]
- ED50 ([1]; Rattus norvegicus, loss of righting reflex, male SD rats, tail vein injection over 10 s, sequential method): 0.0625 mg/kg
- Duration [1, 3]: significantly shorter
- hypnotic onset time [1, 3]: comparable to or slightly longer
- Duration [1, 4]: 531.10±559.16 S
- Onset time [1, 4]: 99.20±29.98 S
- induce sleep in rats ([1]; time to induce sleep, rats, dose twice the ED50): ≤ 5 min
- maximum decrease rates of HR [2, 3]: lower
- maximum increase rates of MAP [2, 3]: lower
- recovery of HR [2, 3]: faster
- HR decrease Duration [2, 5]: 30 min
- MAP increase Duration [2, 5]: 2 min
- HR decrease Maximum decrease rate [2, 6]: 24.7±4.5 %
- MAP decrease Maximum decrease rate [2, 6]: 7.4±9.2%
- MAP increase Maximum increase rate [2, 6]: 19.9±6.3%
- decreases in MAP ([2]; no significant decreases greater than the stated value, rats): ≤ 10%
